Data: ChEMBL document CHEMBL5325403, “Benzenesulfonyl thiazoloimines as unique multitargeting antibacterial agents towards Enterococcus faecalis” (Eur J Med Chem, 2023)
Values after ≈ are worked out from the molar mass of the structure shown.

system: Staphylococcus aureus; experiment: Antibacterial activity against methicillin-resistant Staphylococcus aureus N315 assessed as inhibition of bacterial growth by continuous dilution method; assay type: functional

SMILES | MIC
CCO/N=C(/CS(=O)(=O)c1ccc(N)cc1)c1nccs1 | 256 µg/mL (≈ 787 µM)
CC(=O)Nc1ccc(S(=O)(=O)/C(=C\c2ccc(F)cc2F)C(=O)c2nccs2)cc1 | 64 µg/mL (≈ 143 µM)
CC(=O)Nc1ccc(S(=O)(=O)C/C(=N/Nc2ccc([N+](=O)[O-])cc2[N+](=O)[O-])c2nccs2)cc1 | 8 µg/mL (≈ 15.9 µM)
CC(=O)Nc1ccc(S(=O)(=O)C/C(=N/O)c2nccs2)cc1 | 64 µg/mL (≈ 189 µM)
C#CCO/N=C(/CS(=O)(=O)c1ccc(NC(C)=O)cc1)c1nccs1 | 32 µg/mL (≈ 84.8 µM)
CC(=O)Nc1ccc(S(=O)(=O)C/C(=N/Nc2ccc(Cl)cc2)c2nccs2)cc1 | 256 µg/mL (≈ 570 µM)
CCO/N=C(/CS(=O)(=O)c1ccc(NC(C)=O)cc1)c1nccs1 | 64 µg/mL (≈ 174 µM)
C=CCO/N=C(/CS(=O)(=O)c1ccc(NC(C)=O)cc1)c1nccs1 | 64 µg/mL (≈ 169 µM)

system: Pseudomonas aeruginosa; experiment: Antibacterial activity against Pseudomonas aeruginosa assessed as inhibition of bacterial growth by continuous dilution method; assay type: functional

SMILES | MIC
CCO/N=C(/CS(=O)(=O)c1ccc(N)cc1)c1nccs1 | 64 µg/mL (≈ 197 µM)
CC(=O)Nc1ccc(S(=O)(=O)/C(=C\c2ccc(F)cc2F)C(=O)c2nccs2)cc1 | 128 µg/mL (≈ 285 µM)
CC(=O)Nc1ccc(S(=O)(=O)C/C(=N/Nc2ccc([N+](=O)[O-])cc2[N+](=O)[O-])c2nccs2)cc1 | 64 µg/mL (≈ 127 µM)
CC(=O)Nc1ccc(S(=O)(=O)C/C(=N/O)c2nccs2)cc1 | 128 µg/mL (≈ 377 µM)
C#CCO/N=C(/CS(=O)(=O)c1ccc(NC(C)=O)cc1)c1nccs1 | 64 µg/mL (≈ 170 µM)
CC(=O)Nc1ccc(S(=O)(=O)C/C(=N/Nc2ccc(Cl)cc2)c2nccs2)cc1 | 256 µg/mL (≈ 570 µM)
CCO/N=C(/CS(=O)(=O)c1ccc(NC(C)=O)cc1)c1nccs1 | 128 µg/mL (≈ 348 µM)
C=CCO/N=C(/CS(=O)(=O)c1ccc(NC(C)=O)cc1)c1nccs1 | 128 µg/mL (≈ 337 µM)

system: Escherichia coli; experiment: Antibacterial activity against Escherichia coli assessed as inhibition of bacterial growth by continuous dilution method; assay type: functional

SMILES | MIC
CCO/N=C(/CS(=O)(=O)c1ccc(N)cc1)c1nccs1 | 16 µg/mL (≈ 49.2 µM)
CC(=O)Nc1ccc(S(=O)(=O)/C(=C\c2ccc(F)cc2F)C(=O)c2nccs2)cc1 | 128 µg/mL (≈ 285 µM)
CC(=O)Nc1ccc(S(=O)(=O)C/C(=N/Nc2ccc([N+](=O)[O-])cc2[N+](=O)[O-])c2nccs2)cc1 | 64 µg/mL (≈ 127 µM)
CC(=O)Nc1ccc(S(=O)(=O)C/C(=N/O)c2nccs2)cc1 | 64 µg/mL (≈ 189 µM)
C#CCO/N=C(/CS(=O)(=O)c1ccc(NC(C)=O)cc1)c1nccs1 | 32 µg/mL (≈ 84.8 µM)
CC(=O)Nc1ccc(S(=O)(=O)C/C(=N/Nc2ccc(Cl)cc2)c2nccs2)cc1 | 128 µg/mL (≈ 285 µM)
CCO/N=C(/CS(=O)(=O)c1ccc(NC(C)=O)cc1)c1nccs1 | 32 µg/mL (≈ 87.1 µM)
C=CCO/N=C(/CS(=O)(=O)c1ccc(NC(C)=O)cc1)c1nccs1 | 64 µg/mL (≈ 169 µM)

system: Staphylococcus aureus; experiment: Antibacterial activity against Staphylococcus aureus ATCC 25923 assessed as inhibition of bacterial growth by continuous dilution method; assay type: functional

SMILES | MIC
CCO/N=C(/CS(=O)(=O)c1ccc(N)cc1)c1nccs1 | 64 µg/mL (≈ 197 µM)
CC(=O)Nc1ccc(S(=O)(=O)/C(=C\c2ccc(F)cc2F)C(=O)c2nccs2)cc1 | 256 µg/mL (≈ 571 µM)
CC(=O)Nc1ccc(S(=O)(=O)C/C(=N/Nc2ccc([N+](=O)[O-])cc2[N+](=O)[O-])c2nccs2)cc1 | 4 µg/mL (≈ 7.93 µM)
CC(=O)Nc1ccc(S(=O)(=O)C/C(=N/O)c2nccs2)cc1 | 128 µg/mL (≈ 377 µM)
C#CCO/N=C(/CS(=O)(=O)c1ccc(NC(C)=O)cc1)c1nccs1 | 64 µg/mL (≈ 170 µM)
CC(=O)Nc1ccc(S(=O)(=O)C/C(=N/Nc2ccc(Cl)cc2)c2nccs2)cc1 | 256 µg/mL (≈ 570 µM)
CCO/N=C(/CS(=O)(=O)c1ccc(NC(C)=O)cc1)c1nccs1 | 128 µg/mL (≈ 348 µM)
C=CCO/N=C(/CS(=O)(=O)c1ccc(NC(C)=O)cc1)c1nccs1 | 32 µg/mL (≈ 84.3 µM)

system: Acinetobacter baumannii; experiment: Antibacterial activity against Acinetobacter baumannii assessed as inhibition of bacterial growth by continuous dilution method; assay type: functional

SMILES | MIC
CCO/N=C(/CS(=O)(=O)c1ccc(N)cc1)c1nccs1 | 128 µg/mL (≈ 393 µM)
CC(=O)Nc1ccc(S(=O)(=O)/C(=C\c2ccc(F)cc2F)C(=O)c2nccs2)cc1 | 128 µg/mL (≈ 285 µM)
CC(=O)Nc1ccc(S(=O)(=O)C/C(=N/Nc2ccc([N+](=O)[O-])cc2[N+](=O)[O-])c2nccs2)cc1 | 4 µg/mL (≈ 7.93 µM)
CC(=O)Nc1ccc(S(=O)(=O)C/C(=N/O)c2nccs2)cc1 | 256 µg/mL (≈ 754 µM)
C#CCO/N=C(/CS(=O)(=O)c1ccc(NC(C)=O)cc1)c1nccs1 | 128 µg/mL (≈ 339 µM)
CC(=O)Nc1ccc(S(=O)(=O)C/C(=N/Nc2ccc(Cl)cc2)c2nccs2)cc1 | 256 µg/mL (≈ 570 µM)
CCO/N=C(/CS(=O)(=O)c1ccc(NC(C)=O)cc1)c1nccs1 | 256 µg/mL (≈ 697 µM)
C=CCO/N=C(/CS(=O)(=O)c1ccc(NC(C)=O)cc1)c1nccs1 | 128 µg/mL (≈ 337 µM)

system: Klebsiella pneumoniae; experiment: Antibacterial activity against Klebsiella pneumoniae assessed as inhibition of bacterial growth by continuous dilution method; assay type: functional

SMILES | MIC
CCO/N=C(/CS(=O)(=O)c1ccc(N)cc1)c1nccs1 | 32 µg/mL (≈ 98.3 µM)
CC(=O)Nc1ccc(S(=O)(=O)/C(=C\c2ccc(F)cc2F)C(=O)c2nccs2)cc1 | 128 µg/mL (≈ 285 µM)
CC(=O)Nc1ccc(S(=O)(=O)C/C(=N/Nc2ccc([N+](=O)[O-])cc2[N+](=O)[O-])c2nccs2)cc1 | 64 µg/mL (≈ 127 µM)
CC(=O)Nc1ccc(S(=O)(=O)C/C(=N/O)c2nccs2)cc1 | 64 µg/mL (≈ 189 µM)
C#CCO/N=C(/CS(=O)(=O)c1ccc(NC(C)=O)cc1)c1nccs1 | 32 µg/mL (≈ 84.8 µM)
CC(=O)Nc1ccc(S(=O)(=O)C/C(=N/Nc2ccc(Cl)cc2)c2nccs2)cc1 | 256 µg/mL (≈ 570 µM)
CCO/N=C(/CS(=O)(=O)c1ccc(NC(C)=O)cc1)c1nccs1 | 64 µg/mL (≈ 174 µM)
C=CCO/N=C(/CS(=O)(=O)c1ccc(NC(C)=O)cc1)c1nccs1 | 64 µg/mL (≈ 169 µM)

system: Escherichia coli; experiment: Antibacterial activity against Escherichia coli ATCC 25922 assessed as inhibition of bacterial growth by continuous dilution method; assay type: functional

SMILES | MIC
CCO/N=C(/CS(=O)(=O)c1ccc(N)cc1)c1nccs1 | 32 µg/mL (≈ 98.3 µM)
CC(=O)Nc1ccc(S(=O)(=O)/C(=C\c2ccc(F)cc2F)C(=O)c2nccs2)cc1 | 128 µg/mL (≈ 285 µM)
CC(=O)Nc1ccc(S(=O)(=O)C/C(=N/Nc2ccc([N+](=O)[O-])cc2[N+](=O)[O-])c2nccs2)cc1 | 4 µg/mL (≈ 7.93 µM)
CC(=O)Nc1ccc(S(=O)(=O)C/C(=N/O)c2nccs2)cc1 | 64 µg/mL (≈ 189 µM)
C#CCO/N=C(/CS(=O)(=O)c1ccc(NC(C)=O)cc1)c1nccs1 | 16 µg/mL (≈ 42.4 µM)
CC(=O)Nc1ccc(S(=O)(=O)C/C(=N/Nc2ccc(Cl)cc2)c2nccs2)cc1 | 128 µg/mL (≈ 285 µM)
CCO/N=C(/CS(=O)(=O)c1ccc(NC(C)=O)cc1)c1nccs1 | 16 µg/mL (≈ 43.5 µM)
C=CCO/N=C(/CS(=O)(=O)c1ccc(NC(C)=O)cc1)c1nccs1 | 16 µg/mL (≈ 42.2 µM)

system: Staphylococcus aureus; experiment: Antibacterial activity against Staphylococcus aureus assessed as inhibition of bacterial growth by continuous dilution method; assay type: functional

SMILES | MIC
CCO/N=C(/CS(=O)(=O)c1ccc(N)cc1)c1nccs1 | 256 µg/mL (≈ 787 µM)
CC(=O)Nc1ccc(S(=O)(=O)/C(=C\c2ccc(F)cc2F)C(=O)c2nccs2)cc1 | 128 µg/mL (≈ 285 µM)
CC(=O)Nc1ccc(S(=O)(=O)C/C(=N/Nc2ccc([N+](=O)[O-])cc2[N+](=O)[O-])c2nccs2)cc1 | 2 µg/mL (≈ 3.96 µM)
CC(=O)Nc1ccc(S(=O)(=O)C/C(=N/O)c2nccs2)cc1 | 128 µg/mL (≈ 377 µM)
C#CCO/N=C(/CS(=O)(=O)c1ccc(NC(C)=O)cc1)c1nccs1 | 64 µg/mL (≈ 170 µM)
CC(=O)Nc1ccc(S(=O)(=O)C/C(=N/Nc2ccc(Cl)cc2)c2nccs2)cc1 | 128 µg/mL (≈ 285 µM)
CCO/N=C(/CS(=O)(=O)c1ccc(NC(C)=O)cc1)c1nccs1 | 128 µg/mL (≈ 348 µM)
C=CCO/N=C(/CS(=O)(=O)c1ccc(NC(C)=O)cc1)c1nccs1 | 128 µg/mL (≈ 337 µM)

system: Enterococcus faecalis; experiment: Antibacterial activity against Enterococcus faecalis assessed as inhibition of bacterial growth by continuous dilution method; assay type: functional

SMILES | MIC
CCO/N=C(/CS(=O)(=O)c1ccc(N)cc1)c1nccs1 | 64 µg/mL (≈ 197 µM)
CC(=O)Nc1ccc(S(=O)(=O)/C(=C\c2ccc(F)cc2F)C(=O)c2nccs2)cc1 | 128 µg/mL (≈ 285 µM)
CC(=O)Nc1ccc(S(=O)(=O)C/C(=N/Nc2ccc([N+](=O)[O-])cc2[N+](=O)[O-])c2nccs2)cc1 | 2 µg/mL (≈ 3.96 µM)
CC(=O)Nc1ccc(S(=O)(=O)C/C(=N/O)c2nccs2)cc1 | 64 µg/mL (≈ 189 µM)
C#CCO/N=C(/CS(=O)(=O)c1ccc(NC(C)=O)cc1)c1nccs1 | 64 µg/mL (≈ 170 µM)
CC(=O)Nc1ccc(S(=O)(=O)C/C(=N/Nc2ccc(Cl)cc2)c2nccs2)cc1 | 64 µg/mL (≈ 143 µM)
CCO/N=C(/CS(=O)(=O)c1ccc(NC(C)=O)cc1)c1nccs1 | 32 µg/mL (≈ 87.1 µM)
C=CCO/N=C(/CS(=O)(=O)c1ccc(NC(C)=O)cc1)c1nccs1 | 32 µg/mL (≈ 84.3 µM)

system: Pseudomonas aeruginosa; experiment: Antibacterial activity against Pseudomonas aeruginosa ATCC 27853 assessed as inhibition of bacterial growth by continuous dilution method; assay type: functional

SMILES | MIC
CCO/N=C(/CS(=O)(=O)c1ccc(N)cc1)c1nccs1 | 32 µg/mL (≈ 98.3 µM)
CC(=O)Nc1ccc(S(=O)(=O)/C(=C\c2ccc(F)cc2F)C(=O)c2nccs2)cc1 | 64 µg/mL (≈ 143 µM)
CC(=O)Nc1ccc(S(=O)(=O)C/C(=N/Nc2ccc([N+](=O)[O-])cc2[N+](=O)[O-])c2nccs2)cc1 | 32 µg/mL (≈ 63.4 µM)
CC(=O)Nc1ccc(S(=O)(=O)C/C(=N/O)c2nccs2)cc1 | 64 µg/mL (≈ 189 µM)
C#CCO/N=C(/CS(=O)(=O)c1ccc(NC(C)=O)cc1)c1nccs1 | 64 µg/mL (≈ 170 µM)
CC(=O)Nc1ccc(S(=O)(=O)C/C(=N/Nc2ccc(Cl)cc2)c2nccs2)cc1 | 128 µg/mL (≈ 285 µM)
CCO/N=C(/CS(=O)(=O)c1ccc(NC(C)=O)cc1)c1nccs1 | 64 µg/mL (≈ 174 µM)
C=CCO/N=C(/CS(=O)(=O)c1ccc(NC(C)=O)cc1)c1nccs1 | 64 µg/mL (≈ 169 µM)

system: Staphylococcus aureus; experiment: Antibacterial activity against Staphylococcus aureus ATCC 29213 assessed as inhibition of bacterial growth by continuous dilution method; assay type: functional

SMILES | MIC
CCO/N=C(/CS(=O)(=O)c1ccc(N)cc1)c1nccs1 | 64 µg/mL (≈ 197 µM)
CC(=O)Nc1ccc(S(=O)(=O)/C(=C\c2ccc(F)cc2F)C(=O)c2nccs2)cc1 | 256 µg/mL (≈ 571 µM)
CC(=O)Nc1ccc(S(=O)(=O)C/C(=N/Nc2ccc([N+](=O)[O-])cc2[N+](=O)[O-])c2nccs2)cc1 | 32 µg/mL (≈ 63.4 µM)
CC(=O)Nc1ccc(S(=O)(=O)C/C(=N/O)c2nccs2)cc1 | 64 µg/mL (≈ 189 µM)
C#CCO/N=C(/CS(=O)(=O)c1ccc(NC(C)=O)cc1)c1nccs1 | 64 µg/mL (≈ 170 µM)
CC(=O)Nc1ccc(S(=O)(=O)C/C(=N/Nc2ccc(Cl)cc2)c2nccs2)cc1 | 128 µg/mL (≈ 285 µM)
CCO/N=C(/CS(=O)(=O)c1ccc(NC(C)=O)cc1)c1nccs1 | 64 µg/mL (≈ 174 µM)
C=CCO/N=C(/CS(=O)(=O)c1ccc(NC(C)=O)cc1)c1nccs1 | 64 µg/mL (≈ 169 µM)
